# Patent US20170232083A1, “METHODS OF DIAGNOSIS AND TREATMENT OF CELIAC DISEASE IN CHILDREN” (priority 2014, published 2017)
# System: PBMC (polyclonal gluten-specific T cells) of paediatric and adult CD patients
# Test: IFN-γ ELISpot of PBMC after 3 day oral wheat challenge (SFU, % of maximal peptide response, dominance scores, EC50; Examples 5-6)
# Assay type: cell-based, human
# Conditions: for IFN-γ ELISpot response: after oral wheat challenge; for Cross-reactive T cell response: following wheat challenge
# [1] = patient A, 11-17 yrs, cut-off 10 SFU
# [2] = patient E, H, 11-17 yrs, cut-off 10 SFU
# [3] = patient F, 11-17 yrs, cut-off 10 SFU
# [4] = patient G, 11-17 yrs, cut-off 10 SFU
# [5] = patient H (HLA-DQ2.5 homozygote), 3-5yrs, cut-off 10 SFU
# [6] = patient H, 11-17 yrs, cut-off 10 SFU
# [7] = patient ID not given, 11-17 yrs, cut-off 10 SFU
# [8] = patient N, 3-5yrs, cut-off 10 SFU
# [9] = patient P, 11-17 yrs, cut-off 21.6 SFU
# [10] = patient Q, 11-17 yrs, cut-off 10 SFU
# [11] = patient U, H, 11-17 yrs, cut-off 10 SFU
# [12] = patient V, 6-10 yrs, cut-off 10 SFU
# [13] = patient Y, 6-10 yrs, cut-off 10 SFU
# [14] = patient eleven, 6-10 yrs, cut-off 10 SFU
# [15] = patient four, 3-5yrs, cut-off 10 SFU
# [16] = patient seven, 6-10 yrs, cut-off 10.5 SFU
# [17] = patient ten, 3-5yrs, cut-off 10 SFU
# [18] = patient three, 6-10 yrs, cut-off 10.5 SFU
# [19] = patient twelve, 11-17 yrs, cut-off 10 SFU
# [20] = patient two, 3-5yrs, cut-off 10 SFU
# [21] = subject I (3-5yrs/6-10yrs part)
# [22] = subject J (3-5yrs/6-10yrs part)
# [23] = subject K (3-5yrs/6-10yrs part)
# [24] = subject V (3-5yrs/6-10yrs part)
# [25] = subject W (3-5yrs/6-10yrs part)
# [26] = subject Y (3-5yrs/6-10yrs part)
# [27] = subject five (3-5yrs/6-10yrs part)
# [28] = subject seven (3-5yrs/6-10yrs part)
# [29] = subject six (3-5yrs/6-10yrs part)
# [30] = subject ten (3-5yrs/6-10yrs part)
# [31] = subject two (3-5yrs/6-10yrs part)
sequence,measurement,setting,value
PIPQQPQQPFPLQ,IFN-γ ELISpot response,[1],6 SFU
same,IFN-γ ELISpot response,[2],5 SFU
same,IFN-γ ELISpot response,[3],5 SFU
same,IFN-γ ELISpot response,[4],2 SFU
same,IFN-γ ELISpot response,[5],0 SFU
same,IFN-γ ELISpot response,[6],10 SFU
same,Significant response as percentage of maximal peptide SFU,"patient H, max peptide 17 SFU",′′′ (41-70% = ′′′)
same,IFN-γ ELISpot response,[7],3 SFU
same,Significant response as percentage of maximal peptide SFU,"patient II, max peptide 15 SFU",+ (>70% = +)
same,IFN-γ ELISpot response,[8],1 SFU
same,IFN-γ ELISpot response,[9],9 SFU
same,IFN-γ ELISpot response,[10],13 SFU
same,Significant response as percentage of maximal peptide SFU,"patient Q, max peptide 97 SFU",′ (11-20% = ′)
same,IFN-γ ELISpot response,[11],4 SFU
same,IFN-γ ELISpot response,[12],9 SFU
same,IFN-γ ELISpot response,[13],5 SFU
same,IFN-γ ELISpot response,[14],4 SFU
same,IFN-γ ELISpot response,[15],1 SFU
same,IFN-γ ELISpot response,[16],14 SFU
same,Significant response as percentage of maximal peptide SFU,"patient seven, max peptide 27 SFU",′′′ (41-70% = ′′′)
same,IFN-γ ELISpot response,[17],7 SFU
same,IFN-γ ELISpot response,[18],1 SFU
same,IFN-γ ELISpot response,[19],1 SFU
same,IFN-γ ELISpot response,[20],2 SFU
QPFPQPEQPFRQQ,Cross-reactive T cell response,"subject A, 11-17yrs",1 SFU
same,Significant response as a percentage of maximal peptide SFU,"subject D, 11-17yrs",′′′ (41-70% = ′′′)
same,Cross-reactive T cell response,"subject D, 11-17yrs",15 SFU
same,Significant response as a percentage of maximal peptide SFU,"subject E, 11-17yrs",′ (11-20% = ′)
same,Cross-reactive T cell response,"subject E, 11-17yrs",37 SFU
same,Significant response as a percentage of maximal peptide SFU,"subject F, 11-17yrs",′ (11-20% = ′)
same,Cross-reactive T cell response,"subject F, 11-17yrs",21 SFU
same,Cross-reactive T cell response,"subject G, 11-17yrs",3 SFU
same,Cross-reactive T cell response,subject H,0 SFU
same,Cross-reactive T cell response,[21],4 SFU
same,Significant response as a percentage of maximal peptide SFU,subject J,(6-10% - ^)
same,Cross-reactive T cell response,[22],15 SFU
same,Significant response as a percentage of maximal peptide SFU,subject K,′′ (21-40% = ′′)
same,Cross-reactive T cell response,[23],21 SFU
same,Cross-reactive T cell response,"subject P, 11-17yrs",16 SFU
same,Significant response as a percentage of maximal peptide SFU,"subject Q, 11-17yrs",′′′ (41-70% = ′′′)
same,Cross-reactive T cell response,"subject Q, 11-17yrs",44 SFU
same,Significant response as a percentage of maximal peptide SFU,"subject T, 11-17yrs",′′′ (41-70% = ′′′)
same,Cross-reactive T cell response,"subject T, 11-17yrs",58 SFU
same,Significant response as a percentage of maximal peptide SFU,"subject U, 11-17yrs",′′ (21-40% = ′′)
same,Cross-reactive T cell response,"subject U, 11-17yrs",21 SFU
same,Significant response as a percentage of maximal peptide SFU,subject V,′′′ (41-70% = ′′′)
same,Cross-reactive T cell response,[24],20 SFU
same,Cross-reactive T cell response,[25],8 SFU
same,Cross-reactive T cell response,[26],8 SFU
same,Significant response as a percentage of maximal peptide SFU,subject five,+ (>70% = +)
same,Cross-reactive T cell response,[27],37 SFU
same,Cross-reactive T cell response,"subject nine, 11-17yrs",0 SFU
same,Cross-reactive T cell response,[28],6 SFU
same,Cross-reactive T cell response,[29],5 SFU
same,Cross-reactive T cell response,[30],6 SFU
same,Significant response as a percentage of maximal peptide SFU,subject two,′′ (21-40% = ′′)
same,Cross-reactive T cell response,[31],24 SFU
QPFPQPEQELPLQ,Cross-reactive T cell response,"subject A, 11-17yrs",4 SFU
same,Cross-reactive T cell response,"subject D, 11-17yrs",7 SFU
same,Significant response as a percentage of maximal peptide SFU,"subject E, 11-17yrs",′′ (21-40% = ′′)
same,Cross-reactive T cell response,"subject E, 11-17yrs",46 SFU
same,Significant response as a percentage of maximal peptide SFU,"subject F, 11-17yrs",′ (11-20% = ′)
same,Cross-reactive T cell response,"subject F, 11-17yrs",31 SFU
same,Cross-reactive T cell response,"subject G, 11-17yrs",1 SFU
same,Cross-reactive T cell response,subject H,5 SFU
same,Cross-reactive T cell response,[21],6 SFU
same,Significant response as a percentage of maximal peptide SFU,subject J,′′ (21-40% = ′′)
same,Cross-reactive T cell response,[22],57 SFU
same,Significant response as a percentage of maximal peptide SFU,subject K,′ (11-20% = ′)
same,Cross-reactive T cell response,[23],13 SFU
same,Cross-reactive T cell response,"subject P, 11-17yrs",17 SFU
same,Significant response as a percentage of maximal peptide SFU,"subject Q, 11-17yrs",′ (11-20% = ′)
same,Cross-reactive T cell response,"subject Q, 11-17yrs",14 SFU
same,Significant response as a percentage of maximal peptide SFU,"subject T, 11-17yrs",′′ (21-40% = ′′)
same,Cross-reactive T cell response,"subject T, 11-17yrs",36 SFU
same,Significant response as a percentage of maximal peptide SFU,"subject U, 11-17yrs",′ (11-20% = ′)
same,Cross-reactive T cell response,"subject U, 11-17yrs",12 SFU
same,Cross-reactive T cell response,[24],7 SFU
same,Cross-reactive T cell response,[25],0 SFU
same,Cross-reactive T cell response,[26],0 SFU
same,Cross-reactive T cell response,[27],33 SFU
same,Cross-reactive T cell response,"subject nine, 11-17yrs",1 SFU
same,Cross-reactive T cell response,[28],8 SFU
same,Cross-reactive T cell response,[29],5 SFU
same,Significant response as a percentage of maximal peptide SFU,subject ten,+ (>70% = +)
same,Cross-reactive T cell response,[30],15 SFU
same,Cross-reactive T cell response,[31],9 SFU
YEVIRSLVLRTLPN,IFN-γ ELISpot response,[1],20 SFU
same,Significant response as percentage of maximal peptide SFU,"patient A, max peptide 20 SFU",+ (>70% = +)
same,IFN-γ ELISpot response,[2],1 SFU
same,IFN-γ ELISpot response,[3],2 SFU
same,IFN-γ ELISpot response,[4],1 SFU
same,IFN-γ ELISpot response,[5],0 SFU
same,IFN-γ ELISpot response,[6],3 SFU
same,IFN-γ ELISpot response,[7],1 SFU
same,IFN-γ ELISpot response,[8],2 SFU
same,IFN-γ ELISpot response,[9],49 SFU
same,Significant response as percentage of maximal peptide SFU,"patient P, max peptide 64 SFU",+ (>70% = +)
same,IFN-γ ELISpot response,[10],2 SFU
same,IFN-γ ELISpot response,[11],3 SFU
same,IFN-γ ELISpot response,[12],3 SFU
same,Significant response as percentage of maximal peptide SFU,"patient W, max peptide 30 SFU",+ (>70% = +)
same,IFN-γ ELISpot response,[13],1 SFU
same,IFN-γ ELISpot response,[14],1 SFU
same,IFN-γ ELISpot response,[15],1 SFU
same,IFN-γ ELISpot response,[16],10 SFU
same,IFN-γ ELISpot response,[17],3 SFU
same,IFN-γ ELISpot response,[18],4 SFU
same,IFN-γ ELISpot response,[19],0 SFU
same,IFN-γ ELISpot response,[20],1 SFU
